Reference: US8192962B2, “Processes for detecting toxic substances” (Daikin Industries, Ltd., priority 2001, dated 2012)

System: Stress protein genes
Assay: DNA chip mRNA expression in yeast, stress protein genes (Table 6)
Format: cell-based, Saccharomyces cerevisiae S288C
Summary of the method: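 Chemical exposure: 2 h, log-phase S. cerevisiae S288C, YPD, 25° C., dose set to inhibit growth without death. Profiling: mRNA labeled by reverse transcription with Cy3- or Cy5-dUTP, hybridized to whole-genome array. Output: fluorescence ratio against untreated culture.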

SMILES: CN(C)C(=S)SSC(=S)N(C)C [(10), Tetramethylthiuram disulfide]
- The level of expressed mRNA in the presence of chemical substance/The level of expressed mRNA in the absence of chemical substance (yeast gene YAL005C): 1.8
- The level of expressed mRNA in the presence of chemical substance/The level of expressed mRNA in the absence of chemical substance (yeast gene YAL015C): 2.7
- The level of expressed mRNA in the presence of chemical substance/The level of expressed mRNA in the absence of chemical substance (yeast gene YBL075C): 6.7
- The level of expressed mRNA in the presence of chemical substance/The level of expressed mRNA in the absence of chemical substance (yeast gene YBL093C): 1.1
- The level of expressed mRNA in the presence of chemical substance/The level of expressed mRNA in the absence of chemical substance (yeast gene YBR044C): 1.2
- The level of expressed mRNA in the presence of chemical substance/The level of expressed mRNA in the absence of chemical substance (yeast gene YBR054W): 1.2
- The level of expressed mRNA in the presence of chemical substance/The level of expressed mRNA in the absence of chemical substance (yeast gene YBR067C): 1.0
- The level of expressed mRNA in the presence of chemical substance/The level of expressed mRNA in the absence of chemical substance (yeast gene YBR072W): 43.4
- The level of expressed mRNA in the presence of chemical substance/The level of expressed mRNA in the absence of chemical substance (yeast gene YBR169C): 4.3
- The level of expressed mRNA in the presence of chemical substance/The level of expressed mRNA in the absence of chemical substance (yeast gene YCL035C): 2.3
- The level of expressed mRNA in the presence of chemical substance/The level of expressed mRNA in the absence of chemical substance (yeast gene YCR021C): 1.0
- The level of expressed mRNA in the presence of chemical substance/The level of expressed mRNA in the absence of chemical substance (yeast gene YCR060W): 1.1
- The level of expressed mRNA in the presence of chemical substance/The level of expressed mRNA in the absence of chemical substance (yeast gene YCR083W): 1.8
- The level of expressed mRNA in the presence of chemical substance/The level of expressed mRNA in the absence of chemical substance (yeast gene YDL022W): 1.8
- The level of expressed mRNA in the presence of chemical substance/The level of expressed mRNA in the absence of chemical substance (yeast gene YDL025C): 4.5
- The level of expressed mRNA in the presence of chemical substance/The level of expressed mRNA in the absence of chemical substance (yeast gene YDR033W): 1.0
- The level of expressed mRNA in the presence of chemical substance/The level of expressed mRNA in the absence of chemical substance (yeast gene YDR077W): 0.7
- The level of expressed mRNA in the presence of chemical substance/The level of expressed mRNA in the absence of chemical substance (yeast gene YDR098C): 1.5
- The level of expressed mRNA in the presence of chemical substance/The level of expressed mRNA in the absence of chemical substance (yeast gene YDR155C): 1.3
- The level of expressed mRNA in the presence of chemical substance/The level of expressed mRNA in the absence of chemical substance (yeast gene YDR258C): 13.3
- The level of expressed mRNA in the presence of chemical substance/The level of expressed mRNA in the absence of chemical substance (yeast gene YDR293C): 1.2
- The level of expressed mRNA in the presence of chemical substance/The level of expressed mRNA in the absence of chemical substance (yeast gene YDR436W): 1.1
- The level of expressed mRNA in the presence of chemical substance/The level of expressed mRNA in the absence of chemical substance (yeast gene YDR513W): 3.1
- The level of expressed mRNA in the presence of chemical substance/The level of expressed mRNA in the absence of chemical substance (yeast gene YDR519W): 1.2
- The level of expressed mRNA in the presence of chemical substance/The level of expressed mRNA in the absence of chemical substance (yeast gene YEL030W): 2.5
- The level of expressed mRNA in the presence of chemical substance/The level of expressed mRNA in the absence of chemical substance (yeast gene YEL039C): 1.2
- The level of expressed mRNA in the presence of chemical substance/The level of expressed mRNA in the absence of chemical substance (yeast gene YER042W): 2.1
- The level of expressed mRNA in the presence of chemical substance/The level of expressed mRNA in the absence of chemical substance (yeast gene YER057C): 1.4
- The level of expressed mRNA in the presence of chemical substance/The level of expressed mRNA in the absence of chemical substance (yeast gene YER103W): 9.0
- The level of expressed mRNA in the presence of chemical substance/The level of expressed mRNA in the absence of chemical substance (yeast gene YER125W): 1.2
- The level of expressed mRNA in the presence of chemical substance/The level of expressed mRNA in the absence of chemical substance (yeast gene YFL014W): 5.8
- The level of expressed mRNA in the presence of chemical substance/The level of expressed mRNA in the absence of chemical substance (yeast gene YFL016C): 2.9
- The level of expressed mRNA in the presence of chemical substance/The level of expressed mRNA in the absence of chemical substance (yeast gene YFL020C): 1.4
- The level of expressed mRNA in the presence of chemical substance/The level of expressed mRNA in the absence of chemical substance (yeast gene YFR052W): 3.0
- The level of expressed mRNA in the presence of chemical substance/The level of expressed mRNA in the absence of chemical substance (yeast gene YGL073W): 2.4
- The level of expressed mRNA in the presence of chemical substance/The level of expressed mRNA in the absence of chemical substance (yeast gene YGL115W): 1.2
- The level of expressed mRNA in the presence of chemical substance/The level of expressed mRNA in the absence of chemical substance (yeast gene YGL181W): 2.3
- The level of expressed mRNA in the presence of chemical substance/The level of expressed mRNA in the absence of chemical substance (yeast gene YGR088W): 3.2
- The level of expressed mRNA in the presence of chemical substance/The level of expressed mRNA in the absence of chemical substance (yeast gene YHL028W): 0.4
- The level of expressed mRNA in the presence of chemical substance/The level of expressed mRNA in the absence of chemical substance (yeast gene YHL046C): 2.1
- The level of expressed mRNA in the presence of chemical substance/The level of expressed mRNA in the absence of chemical substance (yeast gene YHR030C): 2.5
- The level of expressed mRNA in the presence of chemical substance/The level of expressed mRNA in the absence of chemical substance (yeast gene YHR057C): 1.2
- The level of expressed mRNA in the presence of chemical substance/The level of expressed mRNA in the absence of chemical substance (yeast gene YHR104W): 2.3
- The level of expressed mRNA in the presence of chemical substance/The level of expressed mRNA in the absence of chemical substance (yeast gene YIL011W): 0.5
- The level of expressed mRNA in the presence of chemical substance/The level of expressed mRNA in the absence of chemical substance (yeast gene YIL033C): 1.3
- The level of expressed mRNA in the presence of chemical substance/The level of expressed mRNA in the absence of chemical substance (yeast gene YIR037W): 3.8
- The level of expressed mRNA in the presence of chemical substance/The level of expressed mRNA in the absence of chemical substance (yeast gene YIR038C): 4.5
- The level of expressed mRNA in the presence of chemical substance/The level of expressed mRNA in the absence of chemical substance (yeast gene YJL128C): 1.7
- The level of expressed mRNA in the presence of chemical substance/The level of expressed mRNA in the absence of chemical substance (yeast gene YJL158C): 0.5
- The level of expressed mRNA in the presence of chemical substance/The level of expressed mRNA in the absence of chemical substance (yeast gene YJL159W): 1.2
- The level of expressed mRNA in the presence of chemical substance/The level of expressed mRNA in the absence of chemical substance (yeast gene YJL165C): 1.0
- The level of expressed mRNA in the presence of chemical substance/The level of expressed mRNA in the absence of chemical substance (yeast gene YJR045C): 3.0
- The level of expressed mRNA in the presence of chemical substance/The level of expressed mRNA in the absence of chemical substance (yeast gene YJR090C): 1.2
- The level of expressed mRNA in the presence of chemical substance/The level of expressed mRNA in the absence of chemical substance (yeast gene YKL161C): 1.7
- The level of expressed mRNA in the presence of chemical substance/The level of expressed mRNA in the absence of chemical substance (yeast gene YKL163W): 1.6
- The level of expressed mRNA in the presence of chemical substance/The level of expressed mRNA in the absence of chemical substance (yeast gene YKL164C): 0.7
- The level of expressed mRNA in the presence of chemical substance/The level of expressed mRNA in the absence of chemical substance (yeast gene YKL210W): 2.9
- The level of expressed mRNA in the presence of chemical substance/The level of expressed mRNA in the absence of chemical substance (yeast gene YKR053C): 1.8
- The level of expressed mRNA in the presence of chemical substance/The level of expressed mRNA in the absence of chemical substance (yeast gene YLL024C): 2.4
- The level of expressed mRNA in the presence of chemical substance/The level of expressed mRNA in the absence of chemical substance (yeast gene YLL026W): 6.6
- The level of expressed mRNA in the presence of chemical substance/The level of expressed mRNA in the absence of chemical substance (yeast gene YLL039C): 1.5
- The level of expressed mRNA in the presence of chemical substance/The level of expressed mRNA in the absence of chemical substance (yeast gene YLL060C): 23.2
- The level of expressed mRNA in the presence of chemical substance/The level of expressed mRNA in the absence of chemical substance (yeast gene YLR006C): 1.1
- The level of expressed mRNA in the presence of chemical substance/The level of expressed mRNA in the absence of chemical substance (yeast gene YLR109W): 2.7
- The level of expressed mRNA in the presence of chemical substance/The level of expressed mRNA in the absence of chemical substance (yeast gene YLR259C): 2.6
- The level of expressed mRNA in the presence of chemical substance/The level of expressed mRNA in the absence of chemical substance (yeast gene YML007W): 2.5
- The level of expressed mRNA in the presence of chemical substance/The level of expressed mRNA in the absence of chemical substance (yeast gene YML070W): 3.9
- The level of expressed mRNA in the presence of chemical substance/The level of expressed mRNA in the absence of chemical substance (yeast gene YMR021C): 1.3
- The level of expressed mRNA in the presence of chemical substance/The level of expressed mRNA in the absence of chemical substance (yeast gene YMR173W): 8.2
- The level of expressed mRNA in the presence of chemical substance/The level of expressed mRNA in the absence of chemical substance (yeast gene YMR186W): 1.3
- The level of expressed mRNA in the presence of chemical substance/The level of expressed mRNA in the absence of chemical substance (yeast gene YNL064C): 1.8
- The level of expressed mRNA in the presence of chemical substance/The level of expressed mRNA in the absence of chemical substance (yeast gene YNL160W): 2.7
- The level of expressed mRNA in the presence of chemical substance/The level of expressed mRNA in the absence of chemical substance (yeast gene YNL241C): 7.4
- The level of expressed mRNA in the presence of chemical substance/The level of expressed mRNA in the absence of chemical substance (yeast gene YNR076W): 2.5
- The level of expressed mRNA in the presence of chemical substance/The level of expressed mRNA in the absence of chemical substance (yeast gene YOL064C): 2.7
- The level of expressed mRNA in the presence of chemical substance/The level of expressed mRNA in the absence of chemical substance (yeast gene YOL161C): 2.0
- The level of expressed mRNA in the presence of chemical substance/The level of expressed mRNA in the absence of chemical substance (yeast gene YOR008C): 1.0
- The level of expressed mRNA in the presence of chemical substance/The level of expressed mRNA in the absence of chemical substance (yeast gene YOR009W): 0.5
- The level of expressed mRNA in the presence of chemical substance/The level of expressed mRNA in the absence of chemical substance (yeast gene YOR010C): 0.7
- The level of expressed mRNA in the presence of chemical substance/The level of expressed mRNA in the absence of chemical substance (yeast gene YOR027W): 4.0
- The level of expressed mRNA in the presence of chemical substance/The level of expressed mRNA in the absence of chemical substance (yeast gene YOR208W): 2.0
- The level of expressed mRNA in the presence of chemical substance/The level of expressed mRNA in the absence of chemical substance (yeast gene YPL059W): 1.3
- The level of expressed mRNA in the presence of chemical substance/The level of expressed mRNA in the absence of chemical substance (yeast gene YPL106C): 1.8
- The level of expressed mRNA in the presence of chemical substance/The level of expressed mRNA in the absence of chemical substance (yeast gene YPL140C): 0.9
- The level of expressed mRNA in the presence of chemical substance/The level of expressed mRNA in the absence of chemical substance (yeast gene YPL194W): 3.1
- The level of expressed mRNA in the presence of chemical substance/The level of expressed mRNA in the absence of chemical substance (yeast gene YPL223C): 16.5
- The level of expressed mRNA in the presence of chemical substance/The level of expressed mRNA in the absence of chemical substance (yeast gene YPL240C): 2.6
- The level of expressed mRNA in the presence of chemical substance/The level of expressed mRNA in the absence of chemical substance (yeast gene YPR005C): 2.0
- The level of expressed mRNA in the presence of chemical substance/The level of expressed mRNA in the absence of chemical substance (yeast gene YPR026W): 3.1
